The values below come from patent USRE47740E1, “Aminopyridinecarboxamides as CXCR2 modulators” (Syntrix Biosystems Inc., priority 2010, dated 2019).

As usually defined, the IC50 is the point on the concentration scale where inhibition reaches its midpoint.

Like-named read-outs stand apart in the source and are kept apart here.

In this test the target is CXCR2 (Homo sapiens (Human), UniProt P25025). The test is described as follows: Inhibition of CXCR2-mediated (GROα-induced) intracellular calcium release in human neutrophils (whole cell assay, Pharmacology Example 1). Type of test: cell-based. The note with it: GROα 25 nM. The procedure: Briefly, human neutrophils were suspended in HBSS^− (without Ca^2+ and Mg^2+) containing 10 mM HEPES and FLIPR Calcium 3 dye (3.1×10^7 cells in total volume 1.7 mL). Cells were aliquoted (200 μL of the cell suspension per tube, 8 tubes total) and 2 μL of compound 9 (with appropriate dilutions) were added to each of 6 tubes. The tested concentrations of compound 9 were 156 nM, 312 nM, 625 nM, 1250 nM, 2500 nM and 5000 nM. As controls, 2 μL of DMSO (1% final concentration) were added to 2 other tubes. Cells were incubated for 30 min at 37° C. After dye loading, tubes were centrifuged at 6,000 rpm for 1 min, supernatant was removed and the cell pellet was re-suspended in 200 μL of HBSS^+ (with Ca^2+ and Mg^2+) containing 10 mM HEPES. The test compound or DMSO (control) was added again at the same concentrations that were used during cell loading. The cell suspension was aliquoted into a 96-well Reading Plate (Corning) in a volume of 90 μL (10^5 cells/well). The Compound Plate contained agonist (GROα in HBSS^−) or HBSS^− (control). After 15 sec of reading the basal level of fluorescence by FlexStation II, 10 μL of GROα or HBSS^− were automatically transferred from the Compound Plate into the Reading Plate (final concentration of GROα was 25 nM). Changes in fluorescence were monitored (λex=485 nm, λem=525 nm) every 5 s for 240 to 500 s at room temperature.
The maximum change in fluorescence, expressed in arbitrary units over baseline (Max-Min), was used to determine the GROα response. The effect of each compound on the GROα response was normalized and expressed as a percent of the DMSO control, which was designated as “100% response.” Curve fitting and calculation of the compound inhibitory concentration that reduces the level of the GROα response by 50% (IC50), or the compound agonist concentration that increases the level of the calcium release by 50% of the maximum agonist-induced change (EC50) were determined by nonlinear regression analysis of the dose-response curves generated using Prism 4 (GraphPad Software, Inc., San Diego, Calif.).

Setting [1] is: FLIPR Calcium 3 dye, read-out: Inhibition of CXCR2 IC50.
The mark [2] stands for this setting: value in synthesis example, read-out: IC50 in whole cell assay (Pharmacology Example 1).

CXCR2, sequence (P25025 whole entry): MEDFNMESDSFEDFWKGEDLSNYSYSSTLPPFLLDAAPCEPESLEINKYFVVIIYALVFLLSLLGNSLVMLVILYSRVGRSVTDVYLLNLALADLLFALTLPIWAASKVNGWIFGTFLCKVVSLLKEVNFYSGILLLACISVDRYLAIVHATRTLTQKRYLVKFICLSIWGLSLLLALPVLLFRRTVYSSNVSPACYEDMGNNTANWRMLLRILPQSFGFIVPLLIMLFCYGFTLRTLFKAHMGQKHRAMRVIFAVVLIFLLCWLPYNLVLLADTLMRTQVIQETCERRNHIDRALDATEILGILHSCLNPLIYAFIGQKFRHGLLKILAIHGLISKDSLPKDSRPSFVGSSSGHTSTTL

`O=C(Nc1ccc(F)cc1)c1ccc(NCc2ccccc2B(O)O)nc1` [Compound 10]: the IC50 reads like this: under setting [1], 1700 ± 200 nM; under setting [2], 1700 ± 200 nM.
Consider `CN(Cc1ccccc1B(O)O)c1ccc(C(=O)Nc2ccc(F)cc2)cn1` [Compound 8], for which the half-maximal inhibitory concentration (IC50) is 1000 ± 200 nM under setting [1] and 3700 ± 600 nM under setting [2].
The corresponding values for `CN(Cc1ccc(B(O)O)cc1)c1ncc(C(=O)Nc2ccc(F)cc2)cn1` [Compound 19] are 244 ± 150 nM and 244 ± 15 nM.
For the compound `CN(Cc1ccccc1O)c1ccc(C(=O)Nc2ccc(F)cc2)cn1` [Compound 9], the IC50 under setting [1] was determined as 586 ± 910 nM; the concentration for half-maximal inhibition (IC50) (read-out: IC50, inhibition of CXCR2-mediated intracellular calcium release) was 586 ± 91 nM; the half-maximal inhibitory concentration (IC50) under setting [2] was found to be 590 ± 90 nM.
For `CN(Cc1ccc(B(O)O)cc1)c1ccc(C(=O)Nc2ccc(F)cc2)cn1` [Compound 18], the 50% inhibitory concentration (IC50) is, setting by setting: under setting [1], 247 ± 350 nM; under setting [2], 247 ± 35 nM.
